Measurements taken from the COVID Moonshot data (paper PMC11187573), “Identification of SARS-CoV-2 Mpro inhibitors through deep reinforcement learning for de novo drug design and computational chemistry approaches” (RSC Medicinal Chemistry, 2024).

Target: SARS-CoV-2 Main Protease (SARS-CoV-2) (UniProt P0DTD1)

Structure (SMILES) | IC50 [µM] | inhibition (20.0 µM) [%] | inhibition (50.0 µM) [%]
O=C(CC1(C(=O)Nc2cncc3ccccc23)CCOc2ccc(Cl)cc21)N1CCOCC1CC(F)F (stereo unspecified) | 9.84 | – | –
O=C(Cc1cc(Cl)cc(NCc2ccc(Br)cc2)c1)Nc1cncc2ccccc12 | 1.43 | – | –
Cn1cc(NC(=O)NCCc2ccsc2)c2ccccc2c1=O | – | 14.5 | 8.36
O=C(COc1ccccc1F)Nc1ncnc2[nH]cnc12 | – | -6.54 | -3.69
CN(C)C(=O)c1cc2cnc(Nc3ccc(N4CCNCC4)cn3)nc2n1C1CCCC1 | – | -3.84 | -4.06
CC(C)Cn1cc(NC(=O)N2CCCN(Cc3ccccc3F)C2)c2ccccc2c1=O | – | -1.37 | -3.78
COc1cc(Cl)c(C)cc1NC(=O)Nc1cn(C)c(=O)c2ccccc12 | – | 23.7 | 5.81
CCOC(=O)N1CCC(NC(=O)Nc2cn(C)c(=O)c3ccccc23)CC1 | – | -1.08 | 1.92
CC(C)Cn1cc(NC(=O)N2CCC(c3ccccc3)C2)c2ccccc2c1=O (stereo unspecified) | – | -2.21 | 0.973
Cn1cc(NC(=O)NCc2ccccn2)c2ccccc2c1=O | – | -2.84 | -6.9
CC(C)(C)c1ccc(N(C(=O)c2cccnc2)C(C(=O)NCCc2cccc(F)c2)c2cccnc2)cc1 (stereo unspecified) | – | -5.55 | -6.34
CCCCN(CCNC(=O)Nc1cn(C)c(=O)c2ccccc12)Cc1ccco1 | – | 6.22 | 12.5
Cn1cc(NC(=O)Nc2cccc(C(F)(F)F)c2)c2ccccc2c1=O | – | -2.91 | 0.168
COc1ccc2nc(NC(=O)Nc3cn(CC(C)C)c(=O)c4ccccc34)sc2c1 | – | 21.3 | 17.6
CC(CCc1ccco1)NC(=O)Nc1cn(C)c(=O)c2ccccc12 (stereo unspecified) | – | 32.6 | 67.9
CC(C)Cn1cc(NC(=O)NCc2ccco2)c2ccccc2c1=O | – | 50.5 | 90.3
Cn1cc(NC(=O)NCCCN2CCc3ccccc3C2)c2ccccc2c1=O | – | -2.25 | 1.39
O=C(Cn1ccnc1[N+](=O)[O-])NCc1ccccc1 | – | -7.12 | 4.09
CC(C)Cn1cc(NC(=O)NCC2CCCO2)c2ccccc2c1=O (stereo unspecified) | – | -0.42 | 6.75
Cn1ccc(CN(C(=O)Cc2cccnc2)c2ccc(-c3ccccn3)cc2)n1 | – | 6.62 | 16.1
CN(Cc1cccc2ccccc12)c1cc(Cl)cc(CC(=O)Nc2cncc3ccccc23)c1 | 1.73 | – | –

Structure (SMILES) | IC50 [µM] | inhibition (20.0 µM) [%] | inhibition (50.0 µM) [%]
CC(C)Cn1cc(NC(=O)NCc2ccc3c(c2)OCO3)c2ccccc2c1=O | – | 15.3 | 11.2
CC(C)N(C(=O)Cc1c(O)c2ccccc2[nH]c1=O)C(C)C | – | -0.198 | -0.251
C[C@@H](Cn1ccc(-c2ccc(C#N)c(Cl)c2)n1)NC(=O)c1cc([C@@H](C)O)[nH]n1 (stereo in doubt) | – | 3.16 | -11.9
Cc1nc2n(n1)CC(C(=O)NC(C)(C(=O)Nc1cncc3ccccc13)c1ccc(Cl)c(Cl)c1)CC2 (stereo unspecified) | 4.82 | – | –
COC[C@]1(C(=O)Nc2cncc3ccccc23)CCOc2cc(Cl)c(Cl)cc21 (stereo in doubt) | 3.22 | – | –
Cc1ccc2nc(Nc3cc(Cl)cc(CC(=O)Nc4cncc5ccccc45)c3)sc2c1 | 0.45 | – | –
Cc1ccncc1NC(=O)N(C)c1cccc(Cl)c1 | – | 17.6 | 33.8
Cn1nc(C(=O)NC(C)(C(=O)Nc2cncc3ccccc23)c2ccc(Cl)c(Cl)c2)cc1C#N (stereo unspecified) | 10.3 | – | –
CC(NC(=O)CN)(C(=O)Nc1cncc2ccccc12)c1ccc(Cl)c(Cl)c1 (stereo unspecified) | 3.38 | – | –
Cc1cc(Cn2nnc3c(-c4ccco4)nc(N)nc32)ccc1N | – | 1.89 | -1.33
O=C(Nc1cncc2ccccc12)[C@@H]1COc2ccc(Cl)cc21 (stereo in doubt) | 0.555 | – | –
CC(C)Oc1ccc(N(C(=O)c2cnc[nH]2)C(C(=O)NCCc2cccc(F)c2)c2cccnc2)cc1 (stereo unspecified) | 0.712 | – | –
C[C@@H]1COCCN1c1cc(C2([S@](C)(=N)=O)CC2)nc(-c2cncc3[nH]ccc23)n1 (stereo in doubt) | – | -0.821 | 3.82
Cc1ccn2cnnc2c1NC(=O)C1CCOc2ccccc21 (stereo unspecified) | – | -11.2 | -4.74
COC(=O)C(c1ccccc1Cl)N1CCC(S)/C(=C/C(=O)O)C1 (stereo unspecified) | – | -2.05 | 1.77
COc1cc2c(cc1OC)C(C)N(C(=O)Nc1cn(C)c(=O)c3ccccc13)CC2 (stereo unspecified) | – | 51.2 | 5.23
O=C(Cc1cc(Cl)cc(Nc2ccc(C(F)(F)F)cn2)c1)Nc1cncc2ccccc12 | 1.22 | – | –
COc1ccc(OC)c(CNC(=O)Nc2cn(C)c(=O)c3ccccc23)c1 | – | 25 | 3.4
O=C(Nc1cncc2ccccc12)[C@@H]1CCNc2cc(Cl)c(Cl)cc21 (stereo in doubt) | 0.05 | – | –
COc1ccc(OC)c(CCNC(=O)Nc2cn(CC(C)C)c(=O)c3ccccc23)c1 | – | 1.12 | 2.5
CCCc1c(C)[nH]c2[nH]n(-c3ccccc3)c(=O)c2c1=O | – | 4.23 | 2.81

Structure (SMILES) | IC50 [µM] | inhibition (20.0 µM) [%] | inhibition (50.0 µM) [%]
Cc1[nH]c2ncnc(NC(=O)C3CCN(c4ccc(Cl)cn4)CC3)c2c1C | – | -8.15 | -5.21
CC(C)Cn1cc(NC(=O)Nc2nc3ccccc3s2)c2ccccc2c1=O | – | 3.79 | 12.2
O=C(Nc1cnn2ccc(N3CCC[C@@H]3c3cc(F)ccc3F)nc12)N1CC[C@H](O)C1 (stereo in doubt) | – | -17.2 | -4.24
Nc1n[nH]c2cc(O)nc(O)c12 | – | 6.14 | 30.9
O=C1C(Nc2ncnc3[nH]cnc23)CCN1Cc1ccccc1 (stereo unspecified) | – | -6.26 | -5.36
NCc1cn(CC(=O)N(Cc2ccsc2)c2ccc(N3CCOCC3)cc2)nn1 | – | -4.16 | -1.29
COc1ccc(NC(=O)Nc2cn(C)c(=O)c3ccccc23)cc1OC | – | 1.6 | 10.8
COc1ccc(NC(=O)c2ccc(C(=N)N(C)C)cc2)c(C(=O)Nc2ccc(Cl)cn2)c1 | – | -17.3 | -3.35
COC(=O)c1c(C)nn(-c2ccccc2)c1-c1cc(C)on1 | – | 18.8 | 3.16
CC(C)Cn1cc(NC(=O)NCCc2c[nH]c3ccccc23)c2ccccc2c1=O | – | 1.66 | 6.69
Cn1cnc(CN(C(=O)c2cnnn2-c2ccccc2)c2ccc(OCc3ccccc3)cc2)c1 | – | -1.63 | 1.89
O=C(OCC(O)CO)c1ccccc1Nc1ccnc2cc(Cl)ccc12 (stereo unspecified) | – | 3.82 | -5.01
COc1cc(Br)ccc1Nc1cc(Cl)cc(CC(=O)Nc2cncc3ccccc23)c1 | 1.39 | – | –
COc1ccc(NC(=O)Nc2cn(C)c(=O)c3ccccc23)c(OC)c1 | – | 7.06 | 17.9
CC1CN(C)CCN1C(=O)CC1(C(=O)Nc2cncc3ccccc23)CCOc2ccc(Cl)cc21 (stereo unspecified) | 6.18 | – | –
COc1cc(Cl)nc(Nc2cc(Cl)cc(CC(=O)Nc3cncc4ccccc34)c2)n1 | 0.504 | – | –
CCn1c(=O)c(-c2cc[nH]n2)cc2c(C)nc(N)nc21 | – | -0.487 | 4.38
CC(C)CCC(=O)C[C@H]1c2ccccc2C(=O)N1c1ccc2ccc(Cl)nc2n1 (stereo in doubt) | – | 4.26 | -0.676
CC(NC(=O)Cc1ccc(-n2cnnn2)cc1)(C(=O)Nc1cncc2ccccc12)c1ccc(Cl)c(Cl)c1 (stereo unspecified) | 4.64 | – | –
CC1Cn2nccc2CN1C(=O)CC1(C(=O)Nc2cncc3ccccc23)CCOc2ccc(Cl)cc21 (stereo unspecified) | 2.11 | – | –
COc1ccc(OC)c(CNC(=O)Nc2cn(CC(C)C)c(=O)c3ccccc23)c1 | – | 18.5 | 0.63

Structure (SMILES) | IC50 [µM] | inhibition (20.0 µM) [%] | inhibition (50.0 µM) [%]
CC(C)Cn1cc(NC(=O)NC2CCCc3ccccc32)c2ccccc2c1=O (stereo unspecified) | – | 26.4 | 12.2
COc1ccccc1OCCNC(=O)c1cc(=O)[nH]c2cccc(OC)c12 | – | 84.4 | 90.9
C[C@@H]1CC[C@@H](c2ccoc2)N2C1CC[C@@]1(CS[C@@]3(CC[C@H]4[C@H](C)CC[C@@H](c5ccoc5)N4[C@@H]3O)C1)[C@@H]2O (stereo in doubt) | – | -19.4 | -23.4
CC(=O)c1cccc(NC(=O)Nc2cn(C)c(=O)c3ccccc23)c1 | – | 22.4 | 11.9
CC(NC(=O)COc1ccc(C(N)=O)cc1)(C(=O)Nc1cncc2ccccc12)c1ccc(Cl)c(Cl)c1 (stereo unspecified) | 12.3 | – | –
Cc1[nH]c2ncnc(NC(=O)c3cc4ccccc4c(=O)o3)c2c1C | – | -7.32 | -4.98
O=C(NCC1(C(=O)Nc2cncc3ccccc23)CCOc2ccc(Cl)cc21)C1COCCN1CC(F)(F)F (stereo unspecified) | 21.6 | – | –
Nc1cc(C(F)(F)F)c(-c2nc(N3CCOCC3)nc(N3CCOCC3)n2)cn1 | – | 5.19 | 5.97
O=C(Nc1nncn1C1CC1)C1CCOc2ccccc21 (stereo unspecified) | – | -1.27 | 2.15
O=C(O)C12CC(CNCc3ccc4c(c3)OCC4)(C1)OC2c1ccccc1 (stereo unspecified) | – | -3.12 | -4.27
O=C(Nc1cncc2ccccc12)[C@H]1COc2ccc(Cl)cc21 (stereo in doubt) | 26.9 | – | –
CC(C)Cn1cc(NC(=O)NCCN2CCOCC2)c2ccccc2c1=O | – | -1.08 | -1.81
Cc1noc(C)c1CCNC(=O)Nc1cn(CC(C)C)c(=O)c2ccccc12 | – | 39 | 94.5
CC(C)Cn1cc(NC(=O)N2CCC(Cc3ccccc3)CC2)c2ccccc2c1=O | – | -4.27 | 3.43
O=C(Nc1nncn1C1CC1)C1CCOc2c(F)cccc21 (stereo unspecified) | – | 2.37 | 3.56
COc1cccc2[nH]c(=O)cc(C(=O)NCCOc3ccccc3OCC3CC3)c12 | 1.92 | – | –
CCc1ccccc1N(CC)C(=O)Nc1cn(C)c(=O)c2ccccc12 | – | -3.06 | 22.3
O=C1CC(C(=O)Nc2cncc3ccccc23)c2cc(Cl)cc(Cl)c2N1 (stereo unspecified) | 3.04 | – | –
O=C1CCCCC(C(=O)Nc2ccc(-c3nc[nH]n3)cc2F)N1 (stereo unspecified) | – | -4.07 | -3.07
Cn1cc(NC(=O)N(Cc2ccco2)CC2CCCO2)c2ccccc2c1=O (stereo unspecified) | – | 2.81 | 0.168
O=C(Nc1c[nH]nc1-c1ccccn1)c1cccc2nccn12 | – | 2.59 | 9.01
